“And” between values parts separate entries of the source, which are not always exact repeats. Equal entries are not always repeated.
Key:
[1] = tested on: 6-OHDA-treated Neuro-2a cells; test: Mitochondrial membrane potential detection (TMRM) in 6-OHDA-treated cells; assay type: cell-based, murine; conditions: for increase of mitochondrial membrane potential: compound 10 µM, 6-OHDA 120 µM, TMRM
Method: We determined the effect of polyphenolic compounds from M. amurensis on 6-OHDA-induced mitochondrial dysfunction in Neuro-2a cells (Figure 6a,b).
Figure 6 The effect of polyphenolic compounds isolated from M. amurensis heartwood on mitochondrial membrane potential in Neuro-2a cells treated with 6-OHDA (120 μM) (a,b). Polyphenolic compounds isolated from M. amurensis heartwood were used at concentrations 10, 1, 0.1 μM. The data are presented as means ± SEM of three independent replicates. (*) and (***) indicate, respectively, p < 0.05 and p < 0.001 versus 6-OHDA-treated cells.
The cells were incubated for 1 h in a 96-well plate (1 × 10^4 cells/well) with polyphenolic compounds (0.1, 1 and 10 µM). Then, 6-OHDA (120 µM) was added, and cell suspension was incubated for 1 h. Cells incubated without 6-OHDA and compounds and with 6-OHDA alone were used as positive and negative control, respectively. The tetramethylrhodamine methyl (TMRM) (Sigma-Aldrich, St. Louis, MO, USA) solution (500 nM) was added to each well and cells were incubated for 30 min at 37 °C. The intensity of fluorescence was measured using a PHERAstar FSplate reader (BMG Labtech, Ortenberg, Germany) at λex = 540 nm and λem = 590 nm. The data were processed by MARS Data Analysis v. 3.01R2 (BMG Labtech, Ortenberg, Germany).

[2] = tested on: 6-OHDA-treated Neuro-2a cells; test: Apoptosis profile by flow cytometry (Annexin V & Dead Cell Kit); assay type: cell-based, murine; conditions: Table 1; polyphenols 10 µM, 6-OHDA 100 µM, 24 h; mean
Method: We investigated the effect of polyphenolic compounds from M. amurensis on apoptosis profile in 6-OHDA-treated Neuro-2a cells by flow cytometry using fluorescent annexin V conjugate as a fluorescent dye. We observed significant changes in apoptosis profile in Neuro-2a cells after 6-OHDA-treatment. […] Polyphenols 3, 6 and 13 diminished the neurotoxic effect of 6-OHDA-treatment.
The cells were incubated for 1 h in a 6-well plate (5 × 10^4 cells/mL) with polyphenolic compounds (10 µM). Then, 6-OHDA (100 µM) was added, and cell suspension was incubated for 24 h. After incubation, the maintenance media was collected, and the cells were washed by cold PBS twice and incubated with trypsin-EDTA solution. The cell suspension was washed with cold PBS twice again, centrifugated and then used for apoptosis detection by Muse® Annexin V & Dead Cell Kit in accordance with the manufacturer’s instructions (Luminex, Austin, TX, USA). The fluorescence was measured with Muse® Cell Analyzer (Luminex, Austin, TX, USA) and the data were processed by Muse 1.5 Analysis software (Luminex, Austin, TX, USA).

HSV-1 [3] = test: Virucidal activity, CPE inhibition assay (HSV-1 pretreated with compounds); assay type: cell-based, HSV-1 strain L2; conditions: for SI: ratio of CC50 to IC50, virucidal scheme
Method: The antiviral activity of polyphenols from M. amurensis against HSV-1 was assessed using the cytopathic effect inhibition (CPE) assay. To study the inhibitory effect of polyphenolic compounds directly on the HSV-1 virus (direct virucidal activity), the monolayer of Vero cells grown on 96-well plates (1 × 10^4 cells/well) was infected with the virus (100 TCD50/mL), pretreated with different concentrations of polyphenolic compounds.
(§1) The HSV-1 strain L2 obtained from N.F. Gamaleya Federal Research Centre for Epidemiology and Microbiology (Moscow, Russia) was grown in Vero cells as previously described.
(§2) We determined the direct inhibitory effect of polyphenolic compounds from M. amurensis heartwood on HSV-1 (virucidal effect). We mixed the virus at an infectious dose (100 TCID50/mL) with polyphenolic compounds (from 0.1 to 100 µg/mL) at a ratio of 1:1 (v/v) and incubated for an hour at 37 °C. Then, we infected the monolayer of Vero cells grown on 96-well plates (1 × 10^4 cells/well) with HSV-1 pretreated with the studied compounds. After 1 h adsorption at 37 °C, the cells were washed with phosphate-buffered saline (PBS) and overlaid by the maintenance medium with 1% FBS. The plates were incubated for 72 h at 37 °C in a CO2-incubator. The cytopathic effect (CPE) inhibition assay and real-time reverse transcription-PCR (RT-PCR) assay were used to evaluate virucidal effect of the tested compounds.
We previously described this method in detail in [22]. We performed the MTT assay to evaluate the antiviral activity of polyphenolic compounds. The viral inhibition rate (IR, %) was calculated according to Equation (1):(1) IR, %=Atv−Acv/Acd−Acv×100, where Atv is the absorbance of cells infected with HSV-1 pretreated with the studied compounds,
We calculated the selectivity index (SI) as the ratio of CC50 to IC50. Experiments were repeated three times.

[4] = tested on: 6-OHDA-treated Neuro-2a cells; test: 6-OHDA-induced neurotoxicity model, cell viability test (MTT); assay type: cell-based, murine; conditions: 6-OHDA 100 µM
Method: Neuro-2a cells were incubated with the studied polyphenolic compounds for 1 h. Then, 100 µM of 6-hydroxydopamine 6-OHDA were added. We determined the percentage of living Neuro-2a cells after treatment with 6-OHDA (Figure 4a–d).
Figure 4 The effect of polyphenolic compounds isolated from M. amurensis heartwood on the viability of Neuro-2a cells treated with 6-OHDA (100 μM) (a–d). The viability of Neuro-2a cells treated with various compounds and 6-OHDA was measured by the MTT assay. Polyphenolic compounds isolated from M. amurensis heartwood were used at concentrations 10, 1, 0.1 μM. The data are presented as means ± SEM of three independent replicates. (*) indicate p < 0.05 versus 6-OHDA-treated cells.
After 24 h of adhesion, Neuro-2a cells (5 × 10^4 cells/mL) were treated with polyphenolic compounds at concentrations of 0.1, 1 and 10 μM for 1 h. Then, 100 µM of 6-OHDA or 1 mM of PQ (Sigma-Aldrich, St. Louis, MO, USA) were added. Cells incubated without inductors or with inductors were used as positive and negative control, respectively. Cell viability was measured after 24 h using the MTT assay.

HSV-1 [5] = test: Virucidal activity, RT-PCR assay (HSV-1 pretreated with compounds); assay type: cell-based, HSV-1 strain L2; conditions: for Ct: 72 h; for −ΔCt: vs virus control; for log10: log10 of 2^−ΔCt; for 2^−ΔCt: relative level of viral DNA vs virus control
Method: Vero cells grown on 96-well plates were infected with the virus (100 TCID50/mL), pretreated with polyphenolic compounds at concentrations 0.1, 1 and 10 μg/mL. After 72 h of cell incubation, viral DNA was extracted from the supernatants, and the relative level of HSV-1 DNA was determined using RT-PCR. The effect of polyphenols on the relative level of viral DNA was assessed using the 2^−∆Ct method and reported as fold reduction compared to virus control.
as §1, §2
We performed the RT-PCR assay as we previously described in detail in [22]. Briefly, HSV-1 DNA was extracted after incubation from cell supernatants by using the DNA-sorb-AM (K1-12-100-CE) nucleic acid extraction kit (AmpliSens®, Moscow, Russia) according to the manufacturer′s instructions. We treated the supernatants with a lysis solution that contained guanidine chloride (chaotropic agent) in the presence of sorbent (silica particles). As the elution solution was added, the DNA was […] silica particles and separated from the sorbent particles by centrifugation.
We detected the DNA of HSV-1 in the obtained samples using the AmpliSens® HSV I, II-FRT-100F PCR kit (AmpliSens®, Moscow, Russia) on a real-time PCR instrument Rotor-Gene Q (Qiagen, Hilden, Nordrhein-Westfalen, Germany) according to the manufacturer′s instructions. The PCR reaction conditions were the following: initial denaturation at 95 °C for 15 min; then 5 cycles at 95 °C for 5 s, at 60 °C for 20 s, at 72 °C for 15 s; then 40 cycles at 95 °C for 5 s, at 60 °C for 20 s, and at 72 °C for 15 s. A negative sample was used as the amplification control for each run. The threshold cycle number Ct, was measured as the PCR cycle, where the amount of the amplified target reached the threshold value; the Ct values ≥ 37 indicated the absence of the HSV-1 DNA in the samples. We assessed the anti-HSV-1 activity of the studied compounds by the reduction in the viral DNA levels using the 2^−ΔCt method according to Equation (2):(2) ΔCt=Ctcv−Cttv where Ct is the threshold cycle number measured as the PCR cycle, where the amount of the amplified target reached the threshold value, […]

[6] = Human alphaherpesvirus 1, 72 h, read-out: 2^−ΔCt
[7] = Human alphaherpesvirus 1, 72 h, read-out: log10

## NCCc1cc(O)c(O)cc1O [Compound 6-OHDA, 6-hydroxydopamine, reference compound]
[1]; 6-OHDA alone
  decrease of TMRM fluorescence after treatment of Neuro-2a cells with 6-OHDA: 14%
[2]
  Dead: 1.11 ± 0.37%
  Early apop.: 42.62% and 42.62 ± 2.3%
  Late apop./Dead: 12.15% and 12.15 ± 1.34%
  Live: 44.14 ± 1.34%

## COc1ccc(-c2coc3cc(O)ccc3c2=O)cc1 [Compound 8, formononetin]
HSV-1 [3]; CPE assay, virus pretreated with compound
  virucidal activity against HSV-1 (in words): did not show virucidal activity
[4]; compound 1 µM
  effect on viability of 6-OHDA-treated Neuro-2a cells (in words): increased the viability
[4]; compounds at 10, 1, 0.1 µM
  effect on viability of 6-OHDA-treated Neuro-2a cells (in words): weak effect on cell viability
HSV-1 [5]; 0.1, 1 and 10 µg/mL
  virucidal activity against HSV-1 by RT-PCR (in words): did not demonstrate virucidal activity

## Oc1cc(O)cc(/C=C/c2ccc(O)c(O)c2)c1 [Compound 11, piceatannol]
[1]
  increase of mitochondrial membrane potential: 8–12%
HSV-1 [3]; Human alphaherpesvirus 1, virus pretreated with compound (virucidal), CPE assay, Vero cells, 100 TCID50/mL
  IC50: 6.7 µg/mL and 27.4 µM
HSV-1 [3]
  SI: 37.3 ± 5.2
[4]; compounds at 10, 1, 0.1 µM
  effect on viability of 6-OHDA-treated Neuro-2a cells (in words): weak effect on cell viability
HSV-1 [5]; 0.1 µg/mL
  Ct: 18.4 ± 2.4
  −ΔCt: −0.30 ± 0.03
HSV-1 [5]; 1 µg/mL
  inhibition of HSV-1 replication by RT-PCR (in words): inhibited the replication of HSV-1
  Ct: 24.5 ± 3.4
  −ΔCt: −6.4 ± 0.8
HSV-1 [5]; 10 µg/mL
  anti-HSV-1 activity by RT-PCR (in words): significantly reduced the level of viral DNA
  Ct: 30.2 ± 3.9
  −ΔCt: −12.1 ± 1.4
HSV-1 [5]; [6]
  activity at 0.1 µg/mL: 81.2 ± 11%
  activity at 1 µg/mL: 1.18 ± 0.15%
  activity at 10 µg/mL: 0.0228 ± 0.03%
HSV-1 [5]; [7]
  log reduction at 0.1 µg/mL: 0.09 ± 0.01
  log reduction at 1 µg/mL: 1.9 ± 0.2
  log reduction at 10 µg/mL: 3.6 ± 0.5

## medicarpin [Compound 7]
[1]
  increase of mitochondrial membrane potential: 8–12%
HSV-1 [3]
  SI: 2.1 ± 0.3
[4]; compounds at 10, 1, 0.1 µM
  effect on viability of 6-OHDA-treated Neuro-2a cells (in words): weak effect on cell viability
HSV-1 [5]; 0.1 µg/mL
  Ct: 18.1 ± 2.2
  log10: 0
  2^−ΔCt: 1.0
  −ΔCt: 0
HSV-1 [5]; 1 µg/mL
  Ct: 18.3 ± 2.2
  log10: −0.060 ± 0.008
  2^−ΔCt: 0.870 ± 0.11
  −ΔCt: −0.20 ± 0.02
HSV-1 [5]; 10 µg/mL
  anti-HSV-1 activity by RT-PCR (in words): moderate anti-HSV-1 activity
  Ct: 19.8 ± 2.4
  log10: −0.50 ± 0.06
  2^−ΔCt: 0.297 ± 0.04
  −ΔCt: −1.75 ± 0.20
